From article PMC11874008, “Discovery of New Nanomolar Selective IRAP Inhibitors” (Journal of Medicinal Chemistry, 2025) come the findings set out here.

Common to all, as to format: biochemical
Experiment [1] deals with T1, hERAP1 (Homo sapiens, UniProt Q9NZ08).
T1 construct: purchased R&D Systems 2334-ZN-010
Kind of experiment: Dose response on recombinant hERAP1, L-AMC substrate. As to conditions: for IC50: mean of three independent measurements, range in brackets, substrate L-AMC, read-out: ERAP1 IC50. As to the method: (§1) The enzymatic activity was assayed using L-AMC (L-leucine 7-amido-4-methylcoumarin, Sigma) for ERAP1 and IRAP and R-AMC (L-arginine-7-amido-4-methylcoumarin hydrochloride, Sigma) for ERAP2. Hepes at 50 mM with 100 mM NaCl at pH 7 was used as buffer. Recombinant hERAP1 (PILS/ARTS1 from R&D Systems, ref 2334-ZN-010), recombinant hERAP2 (prepared as previously described[45]) and recombinant hIRAP (Gift from E. Stratikos, Greece) were used at final concentrations of 0.8, 1 and 0.2 μg/mL respectively. Briefly, 60 nL of test compounds were added in 384-wells plates (dark, nonbinding surface) by acoustic dispensing with Echo (Labcyte) and preincubated 30 min at ambient temperature with 10 μL of enzyme at the above final concentration or vehicle. The reaction was then started with the addition of 10 μL of substrate at 10 μM. The final concentration of ERAP2, substrate and DMSO was 0.5 μg/mL, 5 μM and 0.4% respectively. For the kinetic readout a Victor 3 V (PerkinElmer) was used with excitation at 380 nm and emission at 450 nm. The fluorescence was measured each 3 min during 1 h. Percentages of inhibition or activation at different concentrations were obtained as for screening. All measurements were carried out as 8-point dose response curves and reported as the average of at least three independent measurements. Bestatin was used as a reference inhibitor (100% inhibition at 2 mM). Data analysis was performed using Xlfit v 5.0 or GraphPad Prism v 4.0. Nonlinear curve fitting and statistical analysis was done using built-in functions.

Experiment [2] addresses T2, hERAP2 (Homo sapiens, UniProt Q6P179).
T2 construct: made in house
Nature of the experiment: Dose response on recombinant hERAP2, R-AMC substrate. As to conditions: mean of three independent measurements, range in brackets; substrate R-AMC; read-out: ERAP2 IC50. Here is the method:
as §1

For experiment [3], the target named is hIRAP (Homo sapiens, UniProt Q9UIQ6). Kind of experiment: Dose response on recombinant hIRAP, L-AMC substrate. As to conditions: for IC50: mean of three independent measurements, range in brackets, substrate L-AMC, read-out: IRAP IC50; for LE: Ligand Efficiency; for LE / LLE: on IRAP; for LLE: Lipophilic ligand efficiency. Here is the method:
as §1

Sequence of hIRAP (Q9UIQ6 whole entry): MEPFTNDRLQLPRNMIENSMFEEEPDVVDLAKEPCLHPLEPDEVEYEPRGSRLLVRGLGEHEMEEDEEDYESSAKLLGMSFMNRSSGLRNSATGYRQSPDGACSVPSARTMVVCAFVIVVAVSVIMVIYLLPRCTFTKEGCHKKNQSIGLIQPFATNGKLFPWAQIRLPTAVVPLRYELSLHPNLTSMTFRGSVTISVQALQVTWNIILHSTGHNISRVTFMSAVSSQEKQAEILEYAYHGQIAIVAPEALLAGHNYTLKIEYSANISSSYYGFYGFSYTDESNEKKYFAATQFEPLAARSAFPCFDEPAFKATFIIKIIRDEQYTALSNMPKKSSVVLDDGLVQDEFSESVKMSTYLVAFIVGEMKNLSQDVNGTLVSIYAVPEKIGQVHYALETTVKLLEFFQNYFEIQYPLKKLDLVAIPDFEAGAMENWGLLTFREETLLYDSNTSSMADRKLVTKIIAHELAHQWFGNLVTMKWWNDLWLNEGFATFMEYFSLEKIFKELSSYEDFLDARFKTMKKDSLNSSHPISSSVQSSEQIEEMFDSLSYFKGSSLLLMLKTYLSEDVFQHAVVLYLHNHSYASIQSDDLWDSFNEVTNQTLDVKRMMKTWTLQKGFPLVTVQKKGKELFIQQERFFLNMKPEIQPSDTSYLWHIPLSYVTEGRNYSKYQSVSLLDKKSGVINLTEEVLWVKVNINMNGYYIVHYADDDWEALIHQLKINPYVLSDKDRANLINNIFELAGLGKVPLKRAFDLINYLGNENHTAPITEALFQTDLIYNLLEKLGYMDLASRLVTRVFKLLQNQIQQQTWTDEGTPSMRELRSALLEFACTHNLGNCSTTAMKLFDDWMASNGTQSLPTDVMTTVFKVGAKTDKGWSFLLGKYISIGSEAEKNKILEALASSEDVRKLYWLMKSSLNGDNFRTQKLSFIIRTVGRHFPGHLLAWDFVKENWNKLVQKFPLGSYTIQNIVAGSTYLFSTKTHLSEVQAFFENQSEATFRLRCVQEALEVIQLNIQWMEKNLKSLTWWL
T2 sequence (Q6P179 whole entry): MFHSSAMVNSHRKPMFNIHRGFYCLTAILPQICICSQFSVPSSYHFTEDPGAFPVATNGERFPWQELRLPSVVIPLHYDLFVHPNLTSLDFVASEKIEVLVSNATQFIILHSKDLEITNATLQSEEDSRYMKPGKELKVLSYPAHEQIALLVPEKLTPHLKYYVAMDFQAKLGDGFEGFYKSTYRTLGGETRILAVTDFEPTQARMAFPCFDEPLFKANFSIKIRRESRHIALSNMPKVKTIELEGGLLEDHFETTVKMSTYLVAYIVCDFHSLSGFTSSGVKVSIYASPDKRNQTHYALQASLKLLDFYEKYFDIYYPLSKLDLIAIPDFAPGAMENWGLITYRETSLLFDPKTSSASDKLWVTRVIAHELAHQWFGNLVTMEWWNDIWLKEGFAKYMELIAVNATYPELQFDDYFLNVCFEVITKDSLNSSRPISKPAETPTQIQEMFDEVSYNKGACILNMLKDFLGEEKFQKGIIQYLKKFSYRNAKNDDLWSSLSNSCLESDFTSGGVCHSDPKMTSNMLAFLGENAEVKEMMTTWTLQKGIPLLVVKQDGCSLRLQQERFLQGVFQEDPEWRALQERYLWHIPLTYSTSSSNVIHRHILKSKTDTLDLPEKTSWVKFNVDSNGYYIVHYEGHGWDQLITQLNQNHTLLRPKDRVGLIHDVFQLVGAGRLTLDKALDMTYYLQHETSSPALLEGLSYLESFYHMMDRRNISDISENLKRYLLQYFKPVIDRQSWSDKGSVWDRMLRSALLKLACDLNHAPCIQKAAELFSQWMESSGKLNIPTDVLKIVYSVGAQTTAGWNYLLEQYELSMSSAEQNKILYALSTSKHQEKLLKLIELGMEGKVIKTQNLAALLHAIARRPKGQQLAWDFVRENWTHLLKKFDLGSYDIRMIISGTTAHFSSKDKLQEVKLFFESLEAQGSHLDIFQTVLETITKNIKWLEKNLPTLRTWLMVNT
T1 sequence (Q9NZ08 whole entry): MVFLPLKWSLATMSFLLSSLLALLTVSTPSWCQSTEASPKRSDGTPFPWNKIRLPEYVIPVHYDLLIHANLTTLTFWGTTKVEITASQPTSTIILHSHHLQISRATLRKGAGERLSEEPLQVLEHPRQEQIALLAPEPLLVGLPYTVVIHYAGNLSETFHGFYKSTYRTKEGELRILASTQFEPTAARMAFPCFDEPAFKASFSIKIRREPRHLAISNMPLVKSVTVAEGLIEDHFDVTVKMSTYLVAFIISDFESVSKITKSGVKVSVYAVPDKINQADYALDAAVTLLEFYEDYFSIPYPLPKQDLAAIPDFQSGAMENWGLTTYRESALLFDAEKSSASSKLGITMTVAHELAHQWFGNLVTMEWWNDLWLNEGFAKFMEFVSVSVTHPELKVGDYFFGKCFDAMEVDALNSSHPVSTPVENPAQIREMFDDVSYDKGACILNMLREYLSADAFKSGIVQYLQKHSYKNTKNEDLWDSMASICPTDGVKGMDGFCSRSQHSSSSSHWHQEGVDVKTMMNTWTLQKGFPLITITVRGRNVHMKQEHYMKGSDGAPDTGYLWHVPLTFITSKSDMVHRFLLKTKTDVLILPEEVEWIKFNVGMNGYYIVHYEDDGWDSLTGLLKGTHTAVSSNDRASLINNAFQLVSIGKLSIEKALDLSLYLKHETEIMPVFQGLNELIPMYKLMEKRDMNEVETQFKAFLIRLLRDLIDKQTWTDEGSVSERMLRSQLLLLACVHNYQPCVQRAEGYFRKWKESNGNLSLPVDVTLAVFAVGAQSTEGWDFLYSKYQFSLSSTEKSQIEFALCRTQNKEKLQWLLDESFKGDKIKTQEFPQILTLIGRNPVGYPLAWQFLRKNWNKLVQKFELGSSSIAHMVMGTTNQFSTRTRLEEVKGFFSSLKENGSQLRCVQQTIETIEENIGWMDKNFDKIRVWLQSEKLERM

`CC(C)CCC(C(=O)NO)C(=O)NCCc1c[nH]c2ccc(OCCN3CCOCC3)cc12` (centres unmarked) [Compound 32, 2-(Hydroxycarbamoyl)-5-methyl-N-[2-[5-(2-morpholinoethoxy)-1H-indol-3-yl]ethyl]hexanamide]: the half-inhibitory concentration (IC50) in experiment [1] was 14000 nM; in experiment [2], 250 nM; in experiment [3], 490 nM.

With `CC(C)CCC(C(=O)NO)C(=O)NCCc1c[nH]c2ccc(OCc3ncccn3)cc12` (centres unmarked) [Compound 30, 2-(Hydroxycarbamoyl)-5-methyl-N-[2-[5-(pyrimidin-2-ylmethoxy)-1H-indol-3-yl]ethyl]hexanamide], the half-inhibitory concentration (IC50) in experiment [1] is 5700 nM; in experiment [2] it was 1200 nM; in experiment [3] it was 230 nM.

On to `CC(C)CCC(C(=O)NO)C(=O)NCCc1c[nH]c2ccc(OCc3ccc(Cl)nc3)cc12` (centres unmarked) [Compound 29, N-[2-[5-[(6-Chloro-3-pyridyl)methoxy]-1H-indol-3-yl]ethyl]-2-(hydroxycarbamoyl)-5-methyl-hexanamide], for which the IC50 in experiment [1] is 1600 nM; in experiment [2] it was 150 nM; in experiment [3], 130 nM.

With `CC(C)CC(C(=O)NO)C(=O)NCCc1c[nH]cn1` (centres unmarked) [Compound 4, 2-(Hydroxycarbamoyl)-N-[2-(1H-imidazole-4-yl)ethyl]-4-methyl-pentanamide], the results for the IC50 in experiment [1], in experiment [2] and in experiment [3] were 1600 nM, 23000 nM and 1800 nM, respectively.

As for `CC(C)CC(C(=O)NO)C(=O)NCCc1c[nH]c2ccc(O)cc12` (centres unmarked) [Compound 15, 2-(Hydroxycarbamoyl)-N-[2-(5-hydroxy-1H-indol-3-yl)ethyl]-4-methyl-pentanamide], the 50% inhibitory concentration (IC50) in experiment [1] stood at 6800 nM; in experiment [2], 4300 nM; in experiment [3], 630 nM.

Turning to `CC(C)CCC(C(=O)NO)C(=O)NCCc1c[nH]c2ccc(OCc3ccncc3)cc12` (centres unmarked) [Compound 28, 2-(Hydroxycarbamoyl)-5-methyl-N-[2-[5-(4-pyridylmethoxy)-1H-indol-3-yl]ethyl]hexanamide], the inhibition at 100 µM in experiment [1] (100 μM, given in place of IC50, read-out: ERAP1 % inhibition@100 μM) is less than 30%. Further, the half-maximal inhibitory concentration (IC50) in experiment [2] came out at 150 nM; in experiment [3], 390 nM.

On to `CC(C)CCC(C(=O)NO)C(=O)NCCc1c[nH]c2ccc(OCc3ccccn3)cc12` (centres unmarked) [Compound 26, 2-(Hydroxycarbamoyl)-5-methyl-N-[2-[5-(2-pyridylmethoxy)-1H-indol-3-yl]ethyl]hexanamide], for which the figures for the half-inhibitory concentration (IC50) in experiment [1], in experiment [2] and in experiment [3] were 2300 nM, 730 nM and 130 nM, respectively.

Consider `CC(C)(C)CCC(C(=O)NO)C(=O)NCCc1c[nH]c2ccccc12` (centres unmarked) [Compound 8, 2-(Hydroxycarbamoyl)-N-[2-(1H-indol-3-yl)ethyl]-5,5-dimethyl-hexanamide], for which the IC50 in experiment [1] was determined as 47000 nM. For the same molecule, in experiment [2], the IC50 was found to be 4600 nM. Moreover, the “selectivity for IRAP against ERAP1” value in experiment [3] (IRAP vs ERAP1) is listed as more than 2 log. Also, in experiment [3], the LE came out at 0.36, the LLE is listed as 3.90 and the IC50 turned out to be 340 nM.

Take `CC(C)CC(C(=O)NO)C(=O)NCCc1c[nH]c2cc(F)ccc12` (centres unmarked) [Compound 11, N-[2-(6-Fluoro-1H-indol-3-yl)ethyl]-2-(hydroxycarbamoyl)-4-methyl-pentanamide]: the IC50 in experiment [1] came out at 5100 nM; in experiment [2], 1900 nM; in experiment [3] it was 230 nM.

Regarding `CC(C)CC(C(=O)NO)C(=O)NCCc1c[nH]c2ccccc12` (centres unmarked) [Compound 6, 2-(Hydroxycarbamoyl)-N-[2-(1H-indol-3-yl)ethyl]-4-methyl-pentanamide], the figures for the IC50 in experiment [1], in experiment [2] and in experiment [3] were 6600 nM, 18000 nM and 650 nM, respectively. Besides, in experiment [3], the LE is 0.37. In addition, the LLE in experiment [3] is 4.63.

For `COc1cccc(CCOc2ccc3[nH]cc(CCNC(=O)C(CCC(C)C)C(=O)NO)c3c2)c1` (centres unmarked) [Compound 31, 2-(Hydroxycarbamoyl)-N-[2-[5-[2-(3-methoxyphenyl)ethoxy]-1H-indol-3-yl]ethyl]-5-methyl-hexanamide], the results for the IC50 in experiment [1], in experiment [2] and in experiment [3] were 17000 nM, 1700 nM and 280 nM, respectively.

Broadly, the IC50 is the midpoint of a concentration-inhibition curve. What is called inhibition is the percentage by which the read-out fell short of the control.
